One assay has as its system CFA mice. The assay can be described thus: CFA model of inflammatory pain, von Frey paw withdrawal threshold. It counts as in vivo, mouse. The note with it: 3 mg/kg s.c. on days 11 and 40 after CFA, AAV8-tdTomato controls.
The target of a further assay is PICK1 (Rattus norvegicus, UniProt Q9EP80). Nature of the assay: FPLC. It counts as biochemical. As to conditions: FPLC Superdex 200, PICK1 40 µM, molar ratio 1:4 or 1:2, >=20 h at 4°C, A280.
PICK1, sequence (Q9EP80 whole entry): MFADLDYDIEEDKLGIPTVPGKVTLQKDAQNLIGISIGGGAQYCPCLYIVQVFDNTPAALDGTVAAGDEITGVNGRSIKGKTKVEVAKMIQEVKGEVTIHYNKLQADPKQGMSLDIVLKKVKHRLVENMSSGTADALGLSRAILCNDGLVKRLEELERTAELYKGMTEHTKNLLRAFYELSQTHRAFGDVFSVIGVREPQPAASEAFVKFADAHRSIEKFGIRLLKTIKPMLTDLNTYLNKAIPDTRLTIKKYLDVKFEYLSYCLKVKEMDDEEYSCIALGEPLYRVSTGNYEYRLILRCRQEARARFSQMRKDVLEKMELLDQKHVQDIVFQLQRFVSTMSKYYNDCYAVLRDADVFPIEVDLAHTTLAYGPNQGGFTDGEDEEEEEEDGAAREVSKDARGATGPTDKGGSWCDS

As for `O=C1CC[C@@]2(O)[C@H]3Cc4ccc(O)c5c4[C@@]2(CCN3CC2CC2)[C@H]1O5` [NTX, naltrexone], in the assay with CFA mice, the reinstatement of allodynia result is on record as “selectively reinstated allodynia in this group”.

On to “biotin-ahx-GEELLEDIRKFNEMRKNMDQLKEKINSVLSIRQGGGGS-HWLKV [SSO10a-C5]”, for which the PICK1 oligomerization result at PICK1 is listed as “drove PICK1 oligomerization”.

For the origin of these results see publication PMC13293952 (Cell Reports Medicine, 2026).
